The subject of assay [1] is phosphorylated 4E-BP1 Thr37/46 (p4E-BP1 Thr37/46), mTORC1 activity, PC3 cells. The assay can be described thus: mTOR target engagement assay, immunofluorescent cell-based, p4E-BP1 Thr37/46 readout (mTORC1 activity). Particulars: read-out: p4E-BP1 Thr37/46 IC50. The method, boiled down:
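Seed PC3 cells overnight; treat with compound dilutions for ninety minutes at 37° C; fix with glyoxal and block; stain with anti-p4E-BP1 Thr37/46 overnight at 4° C, then fluorescent secondary; read fluorescence and fit IC50 against DMSO-only controls.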

The test system of assay [2] is phosphorylated AKT Ser473 (pAKT S473), mTORC2 activity, PC3 cells. Put plainly: mTOR target engagement assay, immunofluorescent cell-based, pAKT S473 readout (mTORC2 activity). The method, boiled down: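 After blocking, cells were stained overnight at 4 °C with anti-pAKT S473 antibody, then a fluorescent secondary; inhibition was read as reduced fluorescence intensity.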

[3] abbreviates: Homo sapiens, PC-3, PC3 cells, compound treatment ninety minutes at 37° C.
Setting [4] is: Homo sapiens, PC-3, Table 3-1, PC3 cells.
The mark [5] stands for this setting: Homo sapiens, PC-3, Table 6-1, PC3 cells.

Like-named read-outs stand apart in the source and are kept apart here.

Take `COc1ccc2ncc(-c3cnn4c(N)c(C5CC5)c([C@@H]5C[C@H]6CC[C@@H](C5)N6C(=O)c5nnc[nH]5)nc34)cc2c1` [Compound 4.24, ((1R,3s,5S)-3-(7-amino-6-cyclopropyl-3-(6-methoxyquinolin-3-yl)pyrazolo[1,5-a]pyrimidin-5-yl)-8-azabicyclo[3.2.1]octan-8-yl)(4H-1,2,4-triazol-3-yl)methanone]: the IC50 in assay [1] (setting [3]) and in assay [2] (setting [3]) was 100 to 1000 nM in each case.
As to `COc1ccc(-c2ccc(-c3cnn4c(N)c(Br)c([C@@H]5C[C@H]6CC[C@@H](C5)N6C(=O)c5nnc[nH]5)nc34)cn2)cc1F` [Compound 2.4, ((1R,3s,5S)-3-(7-amino-6-bromo-3-(6-(3-fluoro-4-methoxyphenyl)pyridin-3-yl)pyrazolo[1,5-a]pyrimidin-5-yl)-8-azabicyclo[3.2.1]octan-8-yl)(4H-1,2,4-triazol-3-yl)methanone], the IC50 in assay [1] (setting [3]) and in assay [2] (setting [3]) was 100 to 1000 nM each time.
With `Nc1nnc(C(=O)N2C3CCC2CC(c2nc4c(-c5ccc(-c6ccccc6)nc5)cnn4c(N)c2C2CC2)C3)[nH]1` [Compound 8.104, (5-amino-4H-1,2,4-triazol-3-yl)((1R,3s,5S)-3-(7-amino-6-cyclopropyl-3-(6-phenylpyridin-3-yl)pyrazolo[1,5-a]pyrimidin-5-yl)-8-azabicyclo[3.2.1]octan-8-yl)methanone], the IC50 in assay [1] (Homo sapiens, PC-3, PC3 cells) lay in the range of 1 to 100 nM; in assay [2] (Homo sapiens, PC-3, PC3 cells) it was 1 to 100 nM.
As to `CS(=O)(=O)c1c([C@@H]2C[C@H]3CC[C@@H](C2)N3c2nnn[nH]2)nc2c(-c3ccc(-c4ccccc4)nc3)cnn2c1N` [Compound 3.18, 5-((1R,3s,5S)-8-(1H-tetrazol-5-yl)-8-azabicyclo[3.2.1]octan-3-yl)-6-(methylsulfonyl)-3-(6-phenylpyridin-3-yl)pyrazolo[1,5-a]pyrimidin-7-amine], the IC50 in assay [1] (setting [4]) and in assay [2] (setting [4]) was more than 10000 nM throughout.
Regarding `CNC(=O)Nc1ccc(-c2cnn3c(N)c(C(C)=O)c([C@@H]4C[C@H]5CC[C@@H](C4)N5C(=O)c4nnc[nH]4)nc23)cc1` [Compound 8.85, 1-(4-(5-((1R,3s,5S)-8-(4H-1,2,4-triazole-3-carbonyl)-8-azabicyclo[3.2.1]octan-3-yl)-6-acetyl-7-aminopyrazolo[1,5-a]pyrimidin-3-yl)phenyl)-3-methylurea], the IC50 lay in the range of 100 to 1000 nM in assay [1] (Homo sapiens, PC-3, PC3 cells) and 1 to 100 nM in assay [2] (Homo sapiens, PC-3, PC3 cells).
For the molecule “((1R,3s,5S)-3-(7-amino-6-(methylsulfonyl)-3-(6-(5-methylthiazol-2-yl)pyridin-3-yl)pyrazolo[1,5-a]pyrimidin-5-yl)-8-azabicyclo[3.2.1]octan-8-yl)(5-methyl-4H-1,2,4-triazol-3-yl)methanone [Compound 3.183]”, the IC50 fell in the range of 100 to 1000 nM in assay [1] (Table 3-1, PC3 cells) and 100 to 1000 nM in assay [2] (Table 3-1, PC3 cells).
Turning to `COc1ccc(-c2ccc(-c3cnn4c(N)c(S(C)(=O)=O)c([C@@H]5C[C@H]6CC[C@@H](C5)N6C(=O)c5nnc[nH]5)nc34)cn2)s1` [Compound 3.35, ((1R,3s,5S)-3-(7-amino-3-(6-(5-methoxythiophen-2-yl)pyridin-3-yl)-6-(methylsulfonyl)pyrazolo[1,5-a]pyrimidin-5-yl)-8-azabicyclo[3.2.1]octan-8-yl)(4H-1,2,4-triazol-3-yl)methanone], the IC50 in assay [1] (setting [4]) and in assay [2] (setting [4]) was 1 to 100 nM in each case.
In the case of `CC(=O)c1c([C@@H]2C[C@H]3CC[C@@H](C2)N3C(=O)c2cn[nH]c2N)nc2c(-c3ccc(-c4ccccc4)nc3)cnn2c1N` [Compound 1.1.141, 1-(7-amino-5-((1R,3s,5S)-8-(5-amino-1H-pyrazole-4-carbonyl)-8-azabicyclo[3.2.1]octan-3-yl)-3-(6-phenylpyridin-3-yl)pyrazolo[1,5-a]pyrimidin-6-yl)ethanone], the IC50 in assay [1] (setting [3]) and in assay [2] (setting [3]) was 1 to 100 nM each time.
For the molecule `CC(=O)c1c([C@@H]2C[C@H]3CC[C@@H](C2)N3C(=O)c2nnc[nH]2)nc2c(-c3ccc(-c4ncc[nH]4)nc3)cnn2c1N` [Compound 6.4, 1-(3-(6-(1H-imidazol-2-yl)pyridin-3-yl)-5-((1R,3s,5S)-8-(4H-1,2,4-triazole-3-carbonyl)-8-azabicyclo[3.2.1]octan-3-yl)-7-aminopyrazolo[1,5-a]pyrimidin-6-yl)ethanone], the IC50 in assay [1] (setting [5]) and in assay [2] (setting [5]) was 1 to 100 nM each time.
Turning to `CC(=O)c1c([C@@H]2C[C@H]3CC[C@@H](C2)N3C(=O)C(C)(CO)CO)nc2c(-c3ccc(-c4ccccc4)nc3)cnn2c1N` [Compound 1.1.1, 1-((1R,3s,5S)-3-(6-acetyl-7-amino-3-(6-phenylpyridin-3-yl)pyrazolo[1,5-a]pyrimidin-5-yl)-8-azabicyclo[3.2.1]octan-8-yl)-3-hydroxy-2-(hydroxymethyl)-2-methylpropan-1-one], the IC50 in assay [1] (setting [3]) and in assay [2] (setting [3]) was 100 to 1000 nM each time.
`[2H]C1(O)CCCc2cc(-c3cnn4c(N)c(C5CC5)c([C@H]5CC6CC[C@H](C5)N6C(=O)c5nnc[nH]5)nc34)cnc21` (stereo partly drawn) [Compound 7.56, DEUTERATED-(3- EXO)-3-[7-AMINO-6- CYCLOPROPYL-3- (5,6,7,8- TETRAHYDRO-8- HYDROXY-3- QUINOLINYL- (D))PYRAZOLO[1,5- a]PYRIMIDIN-5-YL]-8- (4H-1,2,4-TRIAZOL-3- YLCARBONYL)-8- AZABICYCLO[3.2.1] OCTANE]: the IC50 in assay [1] (Homo sapiens, PC-3, PC3 cells) lay in the range of 1 to 100 nM; in assay [2] (Homo sapiens, PC-3, PC3 cells), 1 to 100 nM.
For the molecule `Cc1cnc(-c2ccc(-c3cnn4c(N)c(S(C)(=O)=O)c([C@@H]5C[C@H]6CC[C@@H](C5)N6C(=O)C5(O)CC5)nc34)cn2)s1` [Compound 3.186, ((1R,3s,5S)-3-(7-amino-6-(methylsulfonyl)-3-(6-(5-methylthiazol-2-yl)pyridin-3-yl)pyrazolo[1,5-a]pyrimidin5-yl)-8-azabicyclo[3.2.1]octan-8-yl)(1-hydroxycyclopropyl)methanone], the IC50 in assay [1] (setting [4]) and in assay [2] (setting [4]) was 1000 to 10000 nM each time.
In the case of `CS(=O)(=O)c1c([C@H]2CC3CC[C@H](C2)N3C(=O)c2nnc[nH]2)nc2c(-c3ccc(C4CCCCC4)nc3)cnn2c1N` [Compound 3.165, ((1R,3s,5S)-3-(7-amino-3-(6-cyclohexylpyridin-3-yl)-6-(methylsulfonyl)pyrazolo[1,5-a]pyrimidin-5-yl)-8-azabicyclo[3.2.1]octan-8-yl)(4H-1,2,4-triazol-3-yl)methanone], the IC50 in assay [1] (setting [4]) and in assay [2] (setting [4]) was 100 to 1000 nM each time.
Consider `CC(=O)c1c([C@@H]2C[C@H]3CC[C@@H](C2)N3C(=O)c2nnc(N)[nH]2)nc2c(-c3ccc(C(O)(C(F)(F)F)C(F)(F)F)nc3)cnn2c1N` [Compound 7.78, 1-(7-amino-5-((1R,3s,5S)-8-(5-amino-4H-1,2,4-triazole-3-carbonyl)-8-azabicyclo[3.2.1]octan-3-yl)-3-(6-(1,1,1,3,3,3-hexafluoro-2-hydroxypropan-2-yl)pyridin-3-yl)pyrazolo[1,5-a]pyrimidin-6-yl)ethanone], for which the IC50 in assay [1] (Homo sapiens, PC-3, PC3 cells) fell in the range of 100 to 1000 nM; in assay [2] (Homo sapiens, PC-3, PC3 cells), 100 to 1000 nM.
In the case of `Nc1cc([C@@H]2C[C@H]3CC[C@@H](C2)N3C(=O)c2nnc[nH]2)nc2c(-c3cnc4[nH]ccc4c3)cnn12` [Compound 2.13, ((1R,3s,5S)-3-(7-amino-3-(1H-pyrrolo[2,3-b]pyridin-5-yl)pyrazolo[1,5-a]pyrimidin-5-yl)-8-azabicyclo[3.2.1]octan-8-yl)(1H-1,2,4-triazol-5-yl)methanone], the IC50 in assay [1] (setting [3]) and in assay [2] (setting [3]) was 1000 to 10000 nM each time.

Values taken from patent publication US9227971B2, “Pyrazolo[1,5-a]pyrimidine compounds as mTOR inhibitors” (Merck Sharp & Dohme Corp., priority 2010, dated 2016).
